Reference: PubChem BioAssay AID248 (DTP/NCI, 2004)
Where “and” joins values, the source holds several entries; their conditions need not be identical. Equal values may be shown once. Toxic doses and inconclusive results are not listed. Rule as the data show it: active = T/C of 150% or more; inactive = T/C below 125%.

Tested on: L1210 leukemia ip in BDF1 mice, survival T/C
Experiment: NCI In Vivo Anticancer Drug Screen. Data for tumor model L1210 Leukemia (intraperitoneal) in B6D2F1 (BDF1) mice
Details: endpoint: mean survival time, higher = longer survival
How it was run: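 Tumor cells were implanted, animals were treated, and survival was followed. The result divides the treated measurement by the vehicle-control measurement.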

Measured: T/C

CC1=C(C#N)C2(CCN(C)CC2)C(C#N)=C(C)N1
inactive: dose: 75.0 mg/kg/injection, schedule: Q01DX001 (ip), vehicle: carboxymethylcellulose (CMC) 105 % of control | dose: 75.0 mg/kg/injection, schedule: Q01DX001 (ip), vehicle: saline 104 % of control | dose: 150.0 mg/kg/injection, schedule: Q01DX001 (ip), vehicle: carboxymethylcellulose (CMC) 109 % of control

CS(=O)(=O)c1nnc(-c2ccccc2)s1
inactive: dose: 50.0 mg/kg/injection, schedule: Q01DX009 (ip), vehicle: saline with Tween-80 93 % of control | dose: 100.0 mg/kg/injection, schedule: Q01DX009 (ip), vehicle: Klucel (hydroxypropylcellulose) (HPC) 97 % of control | dose: 100.0 mg/kg/injection, schedule: Q01DX009 (ip), vehicle: saline with Tween-80 96 % of control and 90 % of control | dose: 200.0 mg/kg/injection, schedule: Q01DX009 (ip), vehicle: Klucel (hydroxypropylcellulose) (HPC) 94 % of control | dose: 200.0 mg/kg/injection, schedule: Q01DX009 (ip), vehicle: saline with Tween-80 93 % of control and 90 % of control

O=C1OC2(c3ccccc31)c1ccccc1-c1ccccc12
inactive: dose: 100.0 mg/kg/injection, schedule: Q04DX003 (ip), vehicle: saline with Tween-80 97 % of control | dose: 200.0 mg/kg/injection, schedule: Q04DX003 (ip), vehicle: saline with Tween-80 89 % of control

c1ccc2c3nc4ccccc4c-3scc2c1
inactive: dose: 100.0 mg/kg/injection, schedule: Q01DX001 (ip), vehicle: acetone 100 % of control | dose: 200.0 mg/kg/injection, schedule: Q01DX001 (ip), vehicle: acetone 103 % of control
